Values joined by “and” are separate entries in the source; they are usually repeats but may differ in a detail not shown here. Identical values can stand only once.
Columns and labels:
[1] = system: carageenan-induced edema; assay: inhibition of carrageenan-induced edema; format: in vivo, male Wistar rat; conditions: oral
Method: The inflammation is produced in the male Wistar rat by injection of 0.1 ml of a 0.5% suspension of carageenan in physiological serum, into the muscular fascia of the metatarsal region of the hind foot of the animal. The test substance is administered orally at the same time as the carageenan or 30 or 60 min before carageenan. The edema is measured by plethysmometry three hours after the adminstration of the carrageenan.

[2] = solubility in water; format: physicochemical
[3] = oral toxicity (mortality) in the Wistar rat; format: in vivo; conditions: in vivo, 3000 mg/kg
Method: The percentages of mortality produced by the compounds of this invention when administered orally to Swiss mice are shown in Table 1. The animals, free from specific pathogenic organisms were housed in an air conditioned room for 24 to 48 hours before the start of the experiment. They were separated into groups of 5 males and 5 females. The materials were administered to animals which had been fasted for 24 hours by means of a gastric tube in suspension in a 6% thickened julep using a volume equivalent to 0.1 ml per 10 g of body weight. […] They remained under observation for two weeks before being sacrificed and autopsied.
The toxicities of the compounds of Examples 2 and 3 were determined in the Wistar rat. The protocol which was followed was the same as that described for the mice, except that the compounds were administered in a volume equivalent to 0.5 ml per 100 g of body weight of rat. […] The product of Example 3 produced no mortality at 2000 mg/kg and 20% mortality at 3000 mg/kg.

## Cc1ccc(C=Nc2ccc3c(c2)OCO3)s1 [Example 2, N-(5-methyl-2-thienylidene)-5-aminobenzodioxole-1,3]
[1]; To - 30, 75 mg/kg
  % inhibiting activity on carrageenan-induced edema: 21%
[1]; To - 30, 150 mg/kg
  % inhibiting activity on carrageenan-induced edema: 47%
[1]; To - 30, 300 mg/kg
  % inhibiting activity on carrageenan-induced edema: 61%
[1]; To - 60, 75 mg/kg
  % inhibiting activity on carrageenan-induced edema: 15%
[1]; To - 60, 150 mg/kg
  % inhibiting activity on carrageenan-induced edema: 26%
[1]; To - 60, 225 mg/kg
  % inhibiting activity on carrageenan-induced edema: 49%
[1]; To - 60, 300 mg/kg
  % inhibiting activity on carrageenan-induced edema: 66%
[1]; at To, 100 mg/kg
  % inhibiting activity on carrageenan-induced edema: 30%
[1]; at To, 150 mg/kg
  % inhibiting activity on carrageenan-induced edema: 64%
[1]; at To, 200 mg/kg
  % inhibiting activity on carrageenan-induced edema: 33%
[1]; at To, 300 mg/kg
  % inhibiting activity on carrageenan-induced edema: 59%
[2]
  solubility in water: insoluble in water

## C(=Nc1ccc2c(c1)OCO2)c1cccnc1 [Example 3, N-(3-pyridylidene)-5-aminobenzodioxole-1,3]
[1]; To - 30 (30 min before carrageenan), 25 mg/kg
  % inhibiting activity on carrageenan-induced edema: 34%
[1]; To - 30, 50 mg/kg
  % inhibiting activity on carrageenan-induced edema: 41% and 38%
[1]; To - 30, 75 mg/kg
  % inhibiting activity on carrageenan-induced edema: 44%
[1]; To - 30, 100 mg/kg
  % inhibiting activity on carrageenan-induced edema: 50% and 41%
[1]; To - 30, 150 mg/kg
  % inhibiting activity on carrageenan-induced edema: 53%
[1]; To - 30, 200 mg/kg
  % inhibiting activity on carrageenan-induced edema: 66%
[1]; To - 30, 400 mg/kg
  % inhibiting activity on carrageenan-induced edema: 67% and 72%
[1]; To - 60 (60 min before carrageenan), 25 mg/kg
  % inhibiting activity on carrageenan-induced edema: 25%
[1]; To - 60, 50 mg/kg
  % inhibiting activity on carrageenan-induced edema: 42%
[1]; To - 60, 75 mg/kg
  % inhibiting activity on carrageenan-induced edema: 40%
[1]; To - 60, 100 mg/kg
  % inhibiting activity on carrageenan-induced edema: 39%
[1]; To - 60, 200 mg/kg
  % inhibiting activity on carrageenan-induced edema: 58%
[1]; To - 60, 400 mg/kg
  % inhibiting activity on carrageenan-induced edema: 69%
[1]; at To, 100 mg/kg
  % inhibiting activity on carrageenan-induced edema: 57% and 29%
[1]; at To, 200 mg/kg
  % inhibiting activity on carrageenan-induced edema: 28% and 36%
[1]; at To, 400 mg/kg
  % inhibiting activity on carrageenan-induced edema: 55% and 39%
[3]
  mortality at 336 h: 20%
[2]
  solubility in water: insoluble in water
